Results on 13 compounds are retold here after ChEMBL document CHEMBL1201862, “PubChem BioAssay data set” (2004).

The structures appear in SMILES notation.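 Method: 48-hour compound exposure of cells in 96-well plates, five concentrations, linear interpolation of endpoints. GI50: concentration for 50% inhibition of growth.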 Active and inactive are the calls of the source. Rule as the data show it: active = GI50 up to about 1.1 µM and inactive = higher.

Test systems include HOP-92; DMS-114; XF498; DLD-1; HOP-18; TK-10; DMS-273; 786-0; KM-20L2; M14; ACHN; SR; M19-MEL; LXFL 529; CAKI-1; Malme-3M; UACC-257; SNB-78; NCI/ADR-RES; MCF7.
Test in all cases: NCI-60 cell line screen, 48 h

For `C#CC(C)(C)OCCCCOc1cc(O)c2c(=O)c3ccccc3n(C)c2c1`, the GI50 in the assay on HOP-92 is > 100 µM (inactive); in the assay with DMS-114 it was 29.3 µM (inactive); with XF498, > 100 µM (inactive); with DLD-1, > 100 µM (inactive); in the assay on HOP-18 it was > 100 µM (inactive); in the assay on TK-10 it was > 100 µM (inactive). Also, the GI50 in the assay with DMS-273 is 77.8 µM (inactive); in the assay on 786-0 it was > 100 µM (inactive); in the assay with KM-20L2, 31.3 µM (inactive); in the assay on M14 it was 87.9 µM (inactive); with ACHN, > 100 µM (inactive); in the assay with SR, 89.3 µM (inactive). For the same compound, the GI50 in the assay with M19-MEL, in the assay on LXFL 529, in the assay on CAKI-1, in the assay with Malme-3M, in the assay on UACC-257 and with SNB-78 was > 100 µM (inactive) in each case.

As to `C=CCCN1CCc2c([nH]c3ccccc23)C1C(=O)O` (stereo unspecified), the GI50 in the assay on HOP-92 is > 100 µM (inactive); in the assay on DMS-114, 63.4 µM (inactive); with XF498, > 100 µM (inactive); in the assay with DLD-1 it was > 100 µM (inactive); in the assay on TK-10, > 100 µM (inactive); with DMS-273 it was > 100 µM (inactive). The GI50 with KM-20L2, with M14, in the assay with ACHN, in the assay with SR, with M19-MEL and in the assay with LXFL 529 was > 100 µM (inactive) throughout. In addition, the GI50 with CAKI-1, with Malme-3M, in the assay on UACC-257 and in the assay with SNB-78 was > 100 µM (inactive) throughout.

Consider `CC(=O)NNc1nc(C)c(C(=O)NNC(=O)C(=O)Nc2ccc([N+](=O)[O-])cc2C#N)s1`, for which the GI50 is > 100 µM (inactive) in the assay with DMS-114; > 100 µM (inactive) in the assay on XF498; > 100 µM (inactive) with TK-10; > 100 µM (inactive) with DMS-273; 67.3 µM (inactive) with 786-0; > 100 µM (inactive) with KM-20L2. Also, the GI50 in the assay with M14 is > 100 µM (inactive); with ACHN, 83.6 µM (inactive); with SR it was 67.1 µM (inactive); with M19-MEL, > 100 µM (inactive); in the assay with LXFL 529, 44.3 µM (inactive); in the assay with Malme-3M it was > 100 µM (inactive). Besides, the GI50 in the assay on UACC-257 and in the assay on SNB-78 was > 100 µM (inactive) in each case.

On to `CC1NC(=O)C(C)C(c2ccccc2)N(N=O)C1c1ccccc1` (stereo unspecified), for which the GI50 with HOP-92 is 39.7 µM (inactive); in the assay with DMS-114 it was 48.5 µM (inactive); in the assay on NCI/ADR-RES it was > 69.8 µM (inactive); in the assay on XF498 it was 29.9 µM (inactive); in the assay with DLD-1, 72.1 µM (inactive); in the assay on HOP-18, 96.8 µM (inactive). The GI50 in the assay with DMS-273 was 63 µM (inactive); in the assay with KM-20L2 it was > 100 µM (inactive); with MCF7, 50 µM (inactive); in the assay on CAKI-1, > 100 µM (inactive); with Malme-3M, > 100 µM (inactive); with UACC-257 it was > 100 µM (inactive). Moreover, the GI50 in the assay on SNB-78 is > 100 µM (inactive).

Consider `CC(=O)OCc1c(C)c2ccccc2n1C(C)=O`, for which the GI50 with HOP-92 was 98.6 µM (inactive); in the assay on DMS-114, 22.6 µM (inactive); in the assay on XF498, 26.5 µM (inactive); in the assay with HOP-18 it was 27.7 µM (inactive); with TK-10, 30.5 µM (inactive); in the assay with DMS-273 it was 25.1 µM (inactive). In addition, the GI50 in the assay with 786-0 is > 100 µM (inactive); in the assay with KM-20L2 it was 53 µM (inactive); in the assay on M14, > 100 µM (inactive); in the assay on ACHN, 25.3 µM (inactive); with SR, 36.1 µM (inactive); in the assay on M19-MEL it was 53 µM (inactive). Besides, the values for the GI50 in the assay with CAKI-1, with Malme-3M and with UACC-257 were > 100 µM (inactive), 25 µM (inactive) and 30.3 µM (inactive), respectively.

In the case of `COC1(OC)CCC2C1C1CCC(OC)(OC)C21` (stereo unspecified), the GI50 with HOP-92, with DMS-114, in the assay on XF498, with DLD-1, in the assay on HOP-18 and in the assay on DMS-273 was > 50 µM (inactive) each time. Besides, the GI50 in the assay with 786-0, in the assay on KM-20L2, in the assay with M14, in the assay on ACHN, in the assay on M19-MEL and in the assay on LXFL 529 was > 50 µM (inactive) in each case. Also, the GI50 with CAKI-1, with Malme-3M, in the assay on UACC-257 and with SNB-78 was > 50 µM (inactive) each time.

With `ClCc1ccc2ccc3ccc(CCl)nc3c2n1`, the GI50 in the assay on HOP-92 is 2.09 µM (inactive); in the assay on DMS-114, 1.87 µM (inactive); with NCI/ADR-RES, 1.71 µM (inactive); in the assay with XF498 it was 1.65 µM (inactive); with DLD-1 it was 1.5 µM (inactive); in the assay on HOP-18 it was 2.65 µM (inactive). Further, the GI50 in the assay with DMS-273 is 2.2 µM (inactive); in the assay with KM-20L2 it was 4.1 µM (inactive); in the assay on M19-MEL it was 1.76 µM (inactive); in the assay with MCF7, 0.955 µM (active); in the assay on Malme-3M it was 1.92 µM (inactive); in the assay with UACC-257, 1.29 µM (inactive). Besides, in the assay on SNB-78, the GI50 was 2.88 µM (inactive).

As to `C=C1C(=O)OC2CC1CCC1(C)OC1CCC(C)=CCCC2(C)O` (stereo unspecified), the GI50 was 2.26 µM (inactive) with HOP-92; 2.74 µM (inactive) in the assay on DMS-114; 1.8 µM (inactive) in the assay with NCI/ADR-RES; 3.73 µM (inactive) with XF498; 1.81 µM (inactive) with DLD-1; 1.47 µM (inactive) with HOP-18. Moreover, the GI50 in the assay with DMS-273 was 3.1 µM (inactive); in the assay on KM-20L2, 2.82 µM (inactive); in the assay with M19-MEL, 4.2 µM (inactive); in the assay with MCF7, 3.82 µM (inactive); in the assay with CAKI-1 it was 2.4 µM (inactive); with Malme-3M, 3.76 µM (inactive). Also, the GI50 was 4.78 µM (inactive) in the assay on UACC-257 and 7.74 µM (inactive) with SNB-78.

As to `Cc1cc(C(=O)NCCN(C)C)c2nc3ccccc3cc2c1`, the GI50 is 1.45 µM (inactive) in the assay with HOP-92; 1.04 µM (active) in the assay on DMS-114; 1.1 µM (active) with NCI/ADR-RES; 1.42 µM (inactive) with XF498; 1.96 µM (inactive) with DLD-1; 1.74 µM (inactive) in the assay on HOP-18. In addition, the GI50 in the assay with DMS-273 was 2.31 µM (inactive); in the assay with KM-20L2 it was 0.729 µM (active); in the assay with M19-MEL it was 1.85 µM (inactive); in the assay on MCF7, 1.55 µM (inactive); in the assay on CAKI-1, 0.33 µM (active); with Malme-3M, 1.6 µM (inactive). In addition, the GI50 with UACC-257 is 2.07 µM (inactive); with SNB-78, 4.45 µM (inactive).

As for `CN1C(=O)CCC1c1ccc2c(c1)oc(=O)n2C` (stereo unspecified), the GI50 in the assay with DMS-114, in the assay with XF498, with DLD-1, in the assay on HOP-18, with TK-10 and in the assay with DMS-273 was > 100 µM (inactive) each time. In addition, the GI50 in the assay on 786-0, with KM-20L2, with M14, in the assay on ACHN, in the assay with M19-MEL and in the assay with LXFL 529 was > 100 µM (inactive) throughout. Besides, the GI50 with CAKI-1, in the assay on Malme-3M, in the assay with UACC-257 and with SNB-78 was > 100 µM (inactive) throughout.

As for `CCN(CC)c1cccc2c1/C(=N/O)CCCC2`, the GI50 with DMS-114 is 52.8 µM (inactive); in the assay on XF498 it was > 100 µM (inactive); in the assay with HOP-18, > 100 µM (inactive); with TK-10, > 100 µM (inactive); in the assay on DMS-273 it was > 100 µM (inactive); in the assay on 786-0 it was > 100 µM (inactive). Moreover, the GI50 with KM-20L2, in the assay on ACHN, in the assay with SR, in the assay on M19-MEL, in the assay on LXFL 529 and in the assay on Malme-3M was > 100 µM (inactive) each time. Moreover, the GI50 with UACC-257 was 65 µM (inactive); in the assay with SNB-78, > 100 µM (inactive).

Turning to `O=C1C=CC(=O)c2c(Cl)ccc(O)c21`, the GI50 in the assay on HOP-92 was 2.75 µM (inactive); with DMS-114, 16.8 µM (inactive); with NCI/ADR-RES, 18.7 µM (inactive); in the assay on XF498, 17.5 µM (inactive); in the assay on DLD-1, 13.9 µM (inactive); in the assay on HOP-18, 19.1 µM (inactive). Besides, the GI50 is 16.2 µM (inactive) with DMS-273; 13.8 µM (inactive) with KM-20L2; 16.3 µM (inactive) in the assay with M19-MEL; 13.9 µM (inactive) with MCF7; 11.1 µM (inactive) in the assay on CAKI-1; 18.7 µM (inactive) in the assay on Malme-3M. Also, the GI50 in the assay with UACC-257 was 16.1 µM (inactive); in the assay on SNB-78, 22 µM (inactive).

On to `COc1cc2c(ccc3c4cc(OC)c(OC)cc4c[n+](C)c23)cc1O` [FAGARONINE], for which the GI50 in the assay on HOP-92 is 23.6 µM (inactive); with DMS-114, 2.37 µM (inactive); in the assay with NCI/ADR-RES, 63.2 µM (inactive); in the assay with XF498, 4.54 µM (inactive); in the assay with DLD-1, 67.5 µM (inactive); with HOP-18 it was > 75 µM (inactive). For the same compound, the GI50 with DMS-273 is 5.75 µM (inactive); in the assay on KM-20L2, > 75 µM (inactive); in the assay with M19-MEL, 23.9 µM (inactive); in the assay with MCF7, 4.15 µM (inactive); in the assay on CAKI-1, 61.7 µM (inactive); with Malme-3M, 15.6 µM (inactive). Also, the results for the GI50 with UACC-257 and with SNB-78 were > 67 µM (inactive) and 26.1 µM (inactive), respectively.
